Measurements: patent US5849736A, “Isoxazoline and isoxazole fibrinogen receptor antagonists” (The DuPont Merck Pharmaceutical Company, priority 1995, dated 1998)
Where a name gives a salt, the structure may show the parent alone.

Test system: platelet aggregation in human platelet rich plasma (PRP)
Assay: Platelet Aggregation Assay (platelet rich plasma, with or without esterase pretreatment)
Format: cell-based
Details: Platelet, preincubated with 100 IU/mL porcine liver esterase 2 hours at 37° C., 100 μM ADP, read-out: Platelet Aggregation Assay IC50 (with esterase)
Description: Venous blood was obtained from the arm of a healthy human donor who was drug-free and aspirin-free for at least two weeks prior to blood collection. Blood was collected into 10 mL citrated Vacutainer tubes. The blood was centrifuged for 15 minutes at 150×g at room temperature, and platelet-rich plasma (PRP) was removed. The remaining blood was centrifuged for 15 minutes at 1500×g at room temperature, and platelet-poor plasma (PPP) was removed. Samples were assayed on a aggregometer (PAP-4 Platelet Aggregation Profiler), using PPP as the blank (100% transmittance). 200 μL of PRP was added to each micro test tube, and transmittance was set to 0%. 20 μL of various agonists (ADP, collagen, arachidonate, epinephrine, thrombin) were added to each tube, and the aggregation profiles were plotted (% transmittance versus time). The results are expressed as % inhibition of agonist-induced platelet aggregation. For the IC50 evaluation, the test compounds were added at various concentrations prior to the activation of the platelets.
Ester prodrugs were preincubated (10^-3 M F.C.) with 100 IU/mL Porcine liver esterase (Sigma Chemical Co., St. Louis, Mo., #E-3128) for 2 hours at 37° C. Aliquots are then diluted in 0.1M Tris, pH 7.4, to the desired concentrations. Aliquots of 20 μl of the esterase pretreated prodrugs are added to 200 μl of human platelet rich plasma. Samples were placed in platelet profiler (aggregometer) for 8 minutes at 37° C., followed by the addition of 100 μM Adenosine Diphosphate, (Sigma Chemical Co., St. Louis, Mo., #A-6521), to induce platelet aggregation. Platelet aggregation was allowed to proceed for 5 minutes. Percent inhibition is calculated using percent aggregation in the presence of the test compound divided by percent aggregation of control, times 100. This value is subtracted from 100, yielding percent inhibition. Calculation of IC50 is performed on a Texas Instruments TI59 with an IC50 program.
Table A below sets forth the antiplatelet activity of representative compounds of the present invention. The indicated compounds were tested for their ability to inhibit platelet aggregation (using platelet rich plasma (PRP)). The IC50 value (the concentration of antagonist which inhibits platelet aggregation by 50% relative to a control lacking the antagonist) is shown. In Table 5 the IC50 values are expressed as: +++=IC50 of <10 μM; ++=IC50 of 10-50 μM; +=IC50 of 50-100 μM (μM=micromolar).

| SMILES | IC50 [µM] |
| --- | --- |
| COC(=O)C(CNC(=O)CC1CC(c2ccc(C(=N)N)cc2)=NO1)NS(=O)(=O)c1ccc(C(C)C)cc1 (stereo not drawn) [Example 492] | < 10 |
| COC(=O)C(CNC(=O)CC1CC(c2ccc(C(=N)N)cc2)=NO1)NS(=O)(=O)CCCc1ccccc1 (stereo not drawn) [Example 493] | < 10 |
| COC(=O)C(CNC(=O)CC1CC(c2ccc(C(=N)N)cc2)=NO1)NS(=O)(=O)c1cccnc1 (stereo not drawn) [Example 494] | < 10 |
| COC(=O)C(CNC(=O)CC1CC(c2ccc(C(=N)N)cc2)=NO1)NS(=O)(=O)c1ccccn1 (stereo not drawn) [Example 495] | < 10 |
| COC(=O)[C@H](CNC(=O)CC1CC(c2ccc(C(=N)N)cc2)=NO1)NS(=O)(=O)C=C(c1ccccc1)c1ccccc1 (stereo partly drawn) [Example 496, Methyl N^2-(2,2-diphenyl-1-ethenesulfonyl)-N^3-[3-(4-amidinophenyl)isoxazolin-5-(R,S)-ylacetyl]-(S)-2,3-diaminopropionate, trifluoroacetic acid salt] | < 10 |
| CCCCNS(=O)(=O)NC(CNC(=O)CC1CC(c2ccc(C(=N)N)cc2)=NO1)C(=O)OC (stereo not drawn) [Example 504] | < 10 |
| COC(=O)C(CNC(=O)CC1CC(c2ccc(C(=N)N)cc2)=NO1)NS(=O)(=O)NCC(C)C (stereo not drawn) [Example 505] | < 10 |
| COC(=O)C(CNC(=O)CC1CC(c2ccc(C(=N)N)cc2)=NO1)NS(=O)(=O)NC(C)(C)C (stereo not drawn) [Example 506] | < 10 |
| COC(=O)C(CNC(=O)CC1CC(c2ccc(C(=N)N)cc2)=NO1)NS(=O)(=O)NC(C)C (stereo not drawn) [Example 507] | < 10 |
| COC(=O)C(CNC(=O)CC1CC(c2ccc(C(=N)N)cc2)=NO1)NS(=O)(=O)NC1CCCCC1 (stereo not drawn) [Example 508] | < 10 |
| COC(=O)C(CNC(=O)CC1CC(c2ccc(C(=N)N)cc2)=NO1)NS(=O)(=O)Nc1ccccc1 (stereo not drawn) [Example 509] | < 10 |
| COC(=O)C(CNC(=O)CC1CC(c2ccc(C(=N)N)cc2)=NO1)NS(=O)(=O)NCc1ccccc1 (stereo not drawn) [Example 510] | < 10 |
| COC(=O)[C@H](CNC(=O)CC1CC(c2ccc(C(=N)N)cc2)=NO1)NS(=O)(=O)N(C)C (stereo partly drawn) [Example 511, Methyl N^2-(N,N-dimethylsulfamoyl)-N^3-[3-(4-amidinophenyl)isoxazolin-5-(R,S)-ylacetyl]-(S)-2,3-diaminopropionate, trifluoroacetic acid salt] | < 10 |
| COC(=O)[C@H](CNC(=O)CC1CC(c2ccc(C(=N)N)cc2F)=NO1)NS(=O)(=O)c1cccc(C)c1 (stereo partly drawn) [Example 512, Methyl N^2-(m-toluenesulfonyl)-N^3-[3-(4-amidino-2-fluorophenyl)isoxazolin-5-ylacetyl]-S-2,3-diaminopropionate hydrochloric acid salt] | < 10 |
| CCCCOC(=O)N[C@@H](CNC(=O)CC1CC(c2ccc(C(=N)N)cn2)=NO1)C(=O)OC (stereo partly drawn) [Example 513, Methyl N^2-(n-butyloxycarbonyl)-N^3-[3-(3-amidinopyrid-6-yl)isoxazolin-5-ylacetyl]-S-2,3-diaminopropionate hydrochloric acid salt] | < 10 |
| COC(=O)[C@H](CNC(=O)CC1CC(c2ccc(C(=N)N)cn2)=NO1)NS(=O)(=O)c1cccc(C)c1 (stereo partly drawn) [Example 514, Methyl N^2-(m-toluenesulfonyl)-N^3-3-(3-amidinopyrid-6-yl)isoxazolin-5-ylacetyl]-S-2,3-diaminopropionate hydrochloric acid salt] | < 10 |
| CCCCOC(=O)N[C@@H](CNC(=O)CC1CC(c2ccc(C(=N)N)nc2)=NO1)C(=O)OC (stereo partly drawn) [Example 515, Methyl N^2-(n-butyloxycarbonyl)-N^3-[3-(2-amidinopyrid-5-yl)isoxazolin-5-ylacetyl]-S-2,3-diaminopropionate hydrochloric acid salt] | < 10 |
| COC(=O)[C@H](CNC(=O)CC1CC(c2ccc(C(=N)N)nc2)=NO1)NS(=O)(=O)c1cccc(C)c1 (stereo partly drawn) [Example 516, Methyl N^2-(m-toluenesulfonyl)-N^3-[3-(2-amidinopyrid-5-yl)isoxazolin-5-ylacetyl]-S-2,3-diaminopropionate hydrochloric acid salt] | < 10 |
